pEC50: −log10 of the molar value. Values after ≈ are worked out from the molar mass of the structure shown. Values joined by “and” are separate entries in the source; they are usually repeats but may differ in a detail not shown here. Identical values can stand only once. Like-named read-outs stand apart in the source and are kept apart here.
Legend:
[1] = test system: HIV-1; details: cited from earlier work
[2] = cited from earlier work
[3] = Aqueous and 1-octanol solubility (excess drug, shaking 48 h, UPLC-UV); assay type: physicochemical; details: for solubility at 48 h: water, thermodynamic from solid
Description: Samples were centrifuged at 20,000 × g for 10 min to separate the solubilized drug from insoluble pellet. Aqueous supernatants were frozen, lyophilized, and then resuspended in MeOH. 1-octanol supernatants were prepared for analysis by dilution in MeOH and samples analyzed for drug content by UPLC-UV (Waters Acquity H Class).

[4] = Prodrug chemical stability of dissociated nanoformulations in pH 2.0-10.3 buffers; assay type: physicochemical; details: buffers pH 2.0-10.3, 24 h
Description: The mixtures were centrifuged at 16,000 × g for 10 min. The supernatants were aspirated and stored at −80 °C until ultraperformance liquid chromatography tandem mass spectrometry (UPLC-MS/MS) analysis.

[5] = test system: HIV-1ADA; assay: Antiretroviral EC50/IC50 in MDM by HIV-1 RT activity after HIV-1ADA challenge; assay type: cell-based; details: for pEC50: Human immunodeficiency virus 1, 240 h; for HIV-1 RT activity (Figure 2C source data): MDM, HIV-1ADA, replicates
Description: To determine long-term antiretroviral efficacy following a single treatment, MDMs were plated in flat-bottom 12-well plates at a density of 1.2 × 10^6 cells/well. […] After treatment, the cells were washed twice with PBS and cultured in a fresh culture medium without drug with half-media replacement every other day. On days 1, 5, 10, 15, 20, 25, and 30 following treatment, the cells were infected with HIV-1ADA (a macrophage-tropic viral strain) at a multiplicity of infection of 0.1 infectious particles/cell for 8 h. MDM were cultured, and media samples collected on day 10 for the measurement of HIV reverse transcriptase (RT) activity as previously described[64],[65]. Cells were fixed in 2% PFA at each time point, and expression of the HIV-1p24 antigen was determined by immunocytochemistry. […] After 4 h of viral challenge, the cells were washed with PBS and given fresh media that contained the same concentrations of drug (0.00005–5,000 nM). Cell supernatants were collected 10 days later and assayed for HIV-1 RT activity as described above. Replicate studies were performed in CEM-ss CD4+ T-cell cultures. Specifically, cells were plated in 96-well plates, centrifuged at 650 × g for 5 min, and resuspended in (0.1–1,000 nM) drug-containing media for 1 h. The subsequent challenge with HIV-1NL4–3-eGFP, cell culture, sample collection, and determination of HIV-1 RT activity were performed as previously reported[13],[15].

[6] = test system: HIV-1NL4–3-eGFP; assay: microbe, parasite or virus in culture; assay type: cell-based; details: replicates
Source text: Supplementary Fi gur e 9. ProTide Biological Characterizations. […]
(1 picture or pasted object on this page, not shown here)

[7] = Prodrug stability in human plasma with or without heat-inactivation; assay type: in vitro ADME
Source text: Point 4. “It would be interesting to see what happens with separate injection at 56 days. Will mast cells occur or was a IgG or IGM response measured?”
Response: The transient presence of mast cells at the intramuscular site of injection is a normal physiological tissue injury response and has been previously observed after intramuscular injection of phosphate buffered saline or aqueous nanocrystalline compounds (Journal of the Neurological Sciences […]
al, mast cells could affect host protein adsorption to the particle surface to influence phagocytosis efficiency, lymphatic nanoparticle uptake and prodrug hydrolytic susceptibility. Other findings by Paquette et al. noted that the foreign body response observed following intramuscular or subcutaneous dosing of […]
Res. 2014; 31(8): 2065–2077). […]
immunogenicity markers were previously measured (PLoS One. 2015 Dec 30;10(12):e0145966. doi:
10.1371/journal.pone.0145966). In our prior studies we have assessed temporal leukocyte responses, drug uptake and distribution following multiple site injection of nanoformulated drugs. […]
inflammatory responses heralded drug distribution to macrophage populations, regional lymph nodes, spleen and liver. This proceeded changes in myeloid populations as determined through flow cytometric tests of changed CD45, CD3, CD11b, F4/80, and GR-1 surface markers. […]

[8] = Figure 1C source data, read-out: water solubility, individual replicates
[9] = room temperature, 48 h, read-out: aqueous solubilities
[10] = Log Drug Concentration (uM) -12

SMILES	water solubility, individual replicates ([3]; Figure 1C source data)	solubility at 48 h [3, 8] [µg/mL]	solubility at 48 h [3, 9] [µg/mL]	pEC50 [5]	HIV-1 RT activity (Figure 2C source data) ([5]; 5e-5 nM)	HIV-1 RT activity (Figure 2C source data) ([5]; 0.0005 nM)	HIV-1 RT activity (Figure 2C source data) ([5]; 0.005 nM)	HIV-1 RT activity (Figure 2C source data) ([5]; 0.05 nM)	HIV-1 RT activity (Figure 2C source data) ([5]; 0.5 nM)	HIV-1 RT activity (Figure 2C source data) ([5]; 5 nM)	HIV-1 RT activity (Figure 2C source data) ([5]; 50 nM)	HIV-1 RT activity (Figure 2C source data) ([5]; 500 nM)	% GFP Positive ([6]; Log Drug Concentration (uM) -1)	% GFP Positive ([6]; Log Drug Concentration (uM) -2)	% GFP Positive ([6]; Log Drug Concentration (uM) -3)	% GFP Positive ([6]; Log Drug Concentration (uM) -4)	% GFP Positive ([6]; Log Drug Concentration (uM) -5)	% GFP Positive ([6]; Log Drug Concentration (uM) -6)	% GFP Positive ([6]; Log Drug Concentration (uM) -9)	% GFP Positive [6, 10]	other results
C[C@@H](Cn1cnc2c(N)ncnc21)OCP(=O)(O)OP(=O)(O)OP(=O)(O)O [TFV-DP, TFV-diphosphate]	–	–	–	–	–	–	–	–	–	–	–	–	–	–	–	–	–	–	–	–	EC90 linked to HIV-1 prevention [1]: 16−48 fmol/10^6 cells; human EC90 [1]: 40 fmol/10^6 cells; intracellular half-life [2]: 60 to 100 h
CCCCCCCCCCCCCCCCCCCCCCOC(=O)[C@H](Cc1ccccc1)NP(=O)(CO[C@H](C)Cn1cnc2c(N)ncnc21)Oc1ccccc1 (stereo partly drawn) [M1TFV]	0.0003886	0.276 (≈ 0.338 µM)	2 (≈ 2.44 µM)	6.96	44.264 and 8.411 and 11.973	42.363 and 4.488 and 5.375 and 2.931	26.663 and 5.953 and 9.965 and 9.489	19.017 and 5.47 and 12.158 and 10.741	23.553 and 6.74 and 16.993 and 9.609	22.939 and 4.566 and 20.189 and 10.617	10.793 and 9.389 and 15.273 and 9.576	1.18 and 0.8 and 2.373 and 0.711	3.432% and 0.342% and 0.154%	34.73% and 38.138% and 34.265%	36.744% and 32.312% and 31.881%	44.656% and 35.338% and 30.526%	36.768% and 35.49% and 33.571%	35.681% and 31.592% and 30.989%	32.583% and 32.39% and 32.614%	35.706% and 34.095% and 37.882%	hydrolytic stability across pH [4]: enhanced prodrug stability over a broader pH range; HIV-1 RT activity (Figure 2C source data) ([5]; 5000 nM): 0.069 and 0.042 and 0.107 and 0.063; % GFP Positive ([6]; Log Drug Concentration (uM) 0): 0.301% and 0.201% and 0.21%; prodrug stability in human plasma [7]: greater prodrug stability is observed following heat-inactivation
C[C@H](Cn1cnc2c(N)ncnc21)OCP(=O)(O)O [TFV]	–	–	–	–	–	–	–	–	–	–	–	–	31.924% and 40.715% and 38.216%	37.754% and 35.95% and 31.757%	42.49% and 36.095% and 44.333%	39.731% and 37.304% and 35.107%	38.31% and 35.838% and 38.644%	32.278% and 38.458% and 41.384%	41.35% and 30.768%	42.035% and 35.935% and 39.23%	% GFP Positive ([6]; Log Drug Concentration (uM) 0): 36.84% and 37.843%
CCCCCCCCCCCCCCCCCCCCCCOC(=O)[C@H](C)NP(=O)(CO[C@H](C)Cn1cnc2c(N)ncnc21)Oc1ccccc1 (stereo partly drawn) [M2TFV]	0.01251	12.8 (≈ 17.2 µM)	7 (≈ 9.42 µM)	7.34	13.739 and 9.752 and 35.142 and 27.238	8.448 and 5.392 and 11.763 and 48.649	4.57 and 12.93 and 25.65	20.147 and 8.847 and 17.324 and 34.222	8.161 and 9.38 and 10.627 and 29.921	11.203 and 10.291 and 8.118 and 21.328	5.19 and 8.444 and 10.014 and 13.232	0.193 and 0.074 and 0.345 and 0.105	34.257% and 38.787% and 40.022%	32.595% and 37.488% and 35.513%	41.233% and 50.41% and 33.492%	35.706% and 41.394% and 37.81%	40.045% and 36.193% and 55.429%	38.435% and 46.924% and 37.203%	35.618% and 35.142% and 32.671%	34.002% and 36.532% and 30.423%	HIV-1 RT activity (Figure 2C source data) ([5]; 5000 nM): 0.109 and 0.079 and 0.087 and 0.068

Source: publication PMC8445934, “Transformation of tenofovir into stable ProTide nanocrystals with long-acting pharmacokinetic profiles” (Nature Communications, 2021)
